US20210183467A1, “SYSTEM AND METHOD FOR USING MICROBIOME TO DE-RISK DRUG DEVELOPMENT” (YALE UNIVERSITY, priority 2018, published 2021)
Each block holds one molecule with its values, some of them ahead of it.

Experiments:
[1] = test system: 76 defined human gut commensals; type: in vitro ADME
Procedure: Using the combinatorial pooling method described above, each of the 21 drug pools was incubated, plus 3 no-drug control pools, with 76 defined human gut commensals from phyla shown in FIG. 8 grown in pure culture. Over 20,000 time-series profiles were collected, each in quadruplicate, of these specific drug-microbe interactions.

[2] = test system: human gut microbiome samples; experiment: Combinatorial drug pools incubated with human gut microbiome samples, LC-qTOF MS; type: in vitro ADME; settings: for metabolism by the human gut microbiome (log2 fold change in amount of drug): 11 individuals randomly selected from the 60 studied, time span of 24 hours
Source text: Beginning with the 1,760 FDA-approved drugs in the MicroSource Pharmakon library, a single UHPLC-qTOF MS method was optimized (C18 column; methanol:water gradient; positive ionization mode) that maximizes the number of detected drugs while minimizing run time. […] These drugs, whose molecular weights vary from ˜155 to ˜800 Da, span a wide range of clinical indications. Many have limited or highly variable bioavailability. Other criteria (specific chemical groups, bioavailability, etc) may be used to select other reference drugs, or drugs may be selected from pre-clinical compound libraries. A computational simulation was performed to determine the number of inputs (drugs) that can be represented in increasing numbers of pools, as a function of changing parameters for replicates and overlap. One such pooling scheme assigns each of 271 drugs to a subset of 21 pools, such that each drug is placed in 4 pools but shares a pool with each other drug at most twice as shown in FIG. 5B. FIG. 5B illustrates combinatorial pooling of 271 drugs indicated in black circles into 21 pools (A-U). Pools V-X are no-drug controls. Other pooling schemes may alter the number of drugs, the number of pools, the number of pools each drug is placed in, or the overlap between the pooling patterns of each drug. […] Each of these pools was incubated with each of 60 human gut microbiome samples and 76 defined bacterial species/strains. Samples were collected over time. Liquid chromatography-coupled quadrupole time-of-flight mass spectrometry (MS) described above was used to quantify drug levels by targeted analysis. For each candidate drug-microbiome interaction, 4 pools provide quadruplicate replication for each drug in 4 distinct contexts of other drugs. The other pools serve as negative controls. In this manner, over 16,000 time-series profiles (271 drugs by 60 communities) were collected, each in quadruplicate, from only 21 drug pools.

BT4554 = experiment: B. thetaiotaomicron loss-of-function screen, bt4554 deletion and complementation; type: in vitro ADME, Bacteroides thetaiotaomicron; settings: BT4554 dependence
Source text: Two independent strategies were developed to identify the microbiome-encoded DMEs responsible for these chemical transformations. For members of the Bacteroides (the most prominent genus in the human gut microbiome in the experiments), Proteobacteria, and other genetically tractable species, Insertion Sequencing (INSeq) is used to make mapped, arrayed transposon mutant libraries as described in Goodman 2009 and Goodman 2011. From these libraries, a representative set of mutants was identified that collectively include disruptions in most non-essential genes. Each mutant was incubated with the pool of drugs metabolized by the parent species. Genes required for drug metabolism by LC-MS were identified as above.
1,352 B. thetaiotaomicron mutants were selected from an arrayed library as described in Goodman 2009 that disrupt ˜70% of its non-essential genes. Each mutant was incubated with a pool of 30 drugs metabolized by this organism. Drug levels were measured over time as above. […] FIGS. 10A-C show two examples: one of these is brivudine, an antiviral whose primary metabolite (bromovinyluracil; BVU) is dangerously toxic for patients taking 5-fluorouracil, a principal therapy for colorectal cancer. With reference to FIGS. 10A-C, transposon mutants representing disruptions in 70% of B. thetaiotaomicron (Bt) non-essential genes were screened for metabolism of 30 drugs targeted by the parent strain.
The contribution of microbial drug metabolism to serum drug and metabolite exposure was directly quantified by specifically modulating this activity in otherwise identical mice. To this end, the capacity of ten individual bacterial species was first determined, representing five major phyla that dominate the mammalian gut microbiota, for their capacity to convert BRV to BVU as illustrated in FIG. 14A. […]
Frozen stocks are re-suspended in 4 mL pre-reduced GMM and incubated anaerobically at 37° C. for 14 h. […] Substrates and reaction product are extracted and quantified by LC-MS as described below. […]

[3] = Liver S9 enzyme assay of conversion to BVU; type: in vitro ADME
Procedure: Human and murine S9 liver fractions are purchased from Thermo Fisher Scientific (HMS9L and MSMCPL, respectively). Enzyme assays are performed for the deglycosylation of arabinosyluracil derivatives. In brief, assays are performed at 37° C. Reaction volumes are 150 μL with liver S9 fractions at 5 μg/μL and BRV or SRV at 100 μM in 10 mM phosphate buffer (pH 7.4). Reactions are initiated by addition of drugs to pre-warmed reaction mixture. 10 μL samples are collected and quenched in 10 μL acetonitrile on ice at 0, 5, 10, 15, 20, 30, 45, 60, 90, 120, 180, 270, and 360 min after initiation. Substrates and reaction product are extracted and quantified by LC-MS as described below.

[4] = patients taking 5-fluorouracil; before withdrawal from the market; cited from earlier work

SMILES: CC(=O)OCC(=O)[C@@]12N=C(C)O[C@@H]1C[C@H]1[C@@H]3CCC4=CC(=O)C=C[C@]4(C)[C@H]3[C@@H](O)C[C@@]12C [deflazacort]
metabolism by individual species [1]: most of the fast metabolizers of this drug are Bacteroides

SMILES: COc1ccc(/C=C/C(=O)Nc2ccccc2C(=O)O)cc1OC [tranilast]
interpersonal variability of metabolism by gut microbiome [2]: one individual that metabolized the drug to a much greater extent than the others | metabolism by the human gut microbiome (log2 fold change in amount of drug) [2]: metabolized by the human gut microbiome

SMILES: CC(=O)OCC(CCn1cnc2cnc(N)nc21)COC(C)=O [Famcyclovir]
metabolism by the human gut microbiome (log2 fold change in amount of drug) [2]: metabolized by the human gut microbiome

SMILES: Cc1nc2n(c(=O)c1CCN1CCC(c3noc4cc(F)ccc34)CC1)CCCC2 [risperidone]
metabolism by the human gut microbiome (log2 fold change in amount of drug) [2]: metabolized by the human gut microbiome

conversion of SRV to BVU ([3]; human S9 liver fractions): slowly converted | conversion of SRV to BVU ([3]; murine S9 liver fractions): slowly converted
SMILES: O=c1[nH]c(=O)n([C@@H]2O[C@H](CO)[C@@H](O)[C@@H]2O)cc1/C=C/Br [SRV, sorivudine]
conversion of SRV to BVU by B. thetaiotaomicron (BT4554): slowly converts SRV to BVU in a BT4554-dependent manner | patients killed by BVU from the drug [4]: 18 patients
